Measured values as given in patent US8685963B2, “Compounds that inhibit NFκB and BACE1 activity” (The Trustees of Columbia University in the city of New York, priority 2008, dated 2014).

Legend:
IkBα = assay: dual luciferase IkBα stabilization screen in OCI-Ly3; assay type: cell-based; conditions: OCI-Ly3 cells
From the text: FIG. 5A-B depicts (A) The two-color dual luciferase based assay. IκBα is fused to a luciferase emitting greenlight (CBG68), while a red light-emitting luciferase (CBR) is present in its native state. Both luciferases are regulated by binding of the tet repressor to the tet operator (TO) binding site (TO), allowing simultaneous induction of the luciferases by the CMV promoter upon addition of doxycycline and test compounds. The CBR protein serves to normalize for non-specific effects, while the levels of the IκBα-CBG68 protein increase uniquely with inhibition of the NFκB pathway leading to IκBα degradation. (B) The nuclear translocation assay. TNFα stimulation results in nuclear translocation of NFκB, which is detected by immunofluorescence using an anti-p65 antibody and a secondary antibody labeled with an Alexa 647 fluorophore (A647). […]
To identify modulators of IkBα stability in ABC-DLBCL lines, such as small molecules inhibiting IKK or proteasome activity, changes in the level of an exogenous IkBα-luciferase fusion reporter expressed by an NFkB-insensitive promoter were measured. […] Upon doxycycline induction of both luciferase reporters, compounds that increased green luminescence with minimal effects on the red luminescence signal were scored as IkBα stabilizers. […]

NFkB [1] = assay: TNFα-induced NFkB nuclear translocation high-content screen in HUVEC; assay type: cell-based, human
From the text: FIG. 5A-B depicts (A) The two-color dual luciferase based assay. IκBα is fused to a luciferase emitting greenlight (CBG68), while a red light-emitting luciferase (CBR) is present in its native state. Both luciferases are regulated by binding of the tet repressor to the tet operator (TO) binding site (TO), allowing simultaneous induction of the luciferases by the CMV promoter upon addition of doxycycline and test compounds. The CBR protein serves to normalize for non-specific effects, while the levels of the IκBα-CBG68 protein increase uniquely with inhibition of the NFκB pathway leading to IκBα degradation. (B) The nuclear translocation assay. TNFα stimulation results in nuclear translocation of NFκB, which is detected by immunofluorescence using an anti-p65 antibody and a secondary antibody labeled with an Alexa 647 fluorophore (A647). […] In the assay, nuclear translocation of the endogenous p65 RelA subunit of NFkB, at 30 min post-stimulation, was monitored using fluorescent antibody detection and an automated imaging platform. (Mayer et al., 2006, Methods Enzyme 414:266) NFkB inhibitors in this assay, such as IkBα stabilizers, were detected as compounds that interfered with p65 translocation to the nucleus.

NFkB [2] = assay: NFkB-dependent β-lactamase reporter assay (NFkB-bla), TNFα stimulated; assay type: cell-based
From the text: By way of example, and not of limitation, such an assay may comprise contacting a cell expressing the NFκβ-dependent reporter construct, and monitoring the level of β-lactamase expression, wherein a decrease in expression compared to a cell not contacted with the compound indicates a reduction in NFκB activity.
The above-described assays were validated using known inhibitors of the NFkB pathway (FIG. 6). The proteasome inhibitor MG-132 (1) 16 served as a positive control for the IkBα stabilization assay. The translocation assay used BAY 11-7082 (2), an agent that inhibits the TNFα-induced phosphorylation of IkBα. […] Additionally, a substituted 2-(thiophen-2-yl)quinazoline 3 which acts as an inhibitor of NFkB and Aβ1 mediated transcriptional activation (Palanki et al., 2003, Bioorg. Med. Chem. Lett. 13:4077) was used as a positive control in a secondary assay that used TNFα to stimulate NFkB-dependent expression of a β-lactamase reporter (NFkB-bla in FIG. 7). This compound also served as a negative control for the dual luciferase IkBa stabilization assay.

O=S(=O)(Nc1cccc2cccnc12)c1ccccc1 [Compound 4, N-(quinolin-8-yl)benzenesulfonamide]
identified in IkBα stabilization screen (IkBα): identified | identified in NFkB translocation screen (NFkB [1]): identified | ability to inhibit the NFkB pathway (β-lactamase reporter) (NFkB [2]): confirmed the ability of these compounds to inhibit the NFkB pathway
